The values that follow come from ChEMBL document CHEMBL5143637, “Design, synthesis and antibacterial activity against pathogenic mycobacteria of conjugated hydroxamic acids, hydrazides and O-alkyl/O-acyl protected hydroxamic derivatives” (Bioorg Med Chem Lett, 2022).

Usually MIC stands for the least concentration at which growth counts as inhibited.

Converted amounts (≈) assume the structure as drawn.

The test deals with Mycobacterium tuberculosis variant bovis. Kind of test: Antimycobacterial activity against Mycobacterium bovis BCG assessed as inhibition of bacterial growth incubated for 4 days by alamar blue assay. Particulars: 96 h, time 4 day. The test is classed as functional.

Consider `CCCC[C@H](CN(O)C=O)C(=O)N1CCC[C@H]1C(=O)Nc1ccccn1`, for which the minimum inhibitory concentration (MIC) was found to be 0.2 µg/mL (≈ 0.552 µM).
